Experimental data reported in patent publication US20260001928A1 (CORTERIA PHARMACEUTICALS, priority 2022, published 2026).
*1 amine or outer side, *2 acyl side, *3 side chain or, on linkers, in order; H or OH if unused. Where a SMILES comes first, the peptide text is derived from it. Side-chain parts run from the residue outwards. [ ]: non-standard residue; d: D form. The star is where a group is joined. C18 diacid = O=C(O)CCCCCCCCCCCCCCCCC(=O)*; C16 diacid = O=C(O)CCCCCCCCCCCCCCC(=O)*; γGlu = O=C(O)[C@H](CCC(=O)[*:2])N[*:1]; NMeI = CC[C@H](C)[C@H](NC)C(=O)O; Api = NC1(C(=O)O)CCNCC1; Pentanoyl = CCCCC(=O)*; AEEA = NCCOCCOCC(=O)O; Aib = CC(C)(N)C(=O)O

How the values were obtained:
CFR1R receptor = target: T1, CFR1R receptor (Homo sapiens, UniProt P34998); experiment: Activity at anti-target CFR1R receptor, cAMP assay in CRF1R-overexpression CHO-K1 cells; format: cell-based; conditions: 100% = Sauvagine at 100 nM; for EC50: cAMP
T1 construct: host or cells: CHO-K1 (clone 2)
T1 sequence (P34998 24-415): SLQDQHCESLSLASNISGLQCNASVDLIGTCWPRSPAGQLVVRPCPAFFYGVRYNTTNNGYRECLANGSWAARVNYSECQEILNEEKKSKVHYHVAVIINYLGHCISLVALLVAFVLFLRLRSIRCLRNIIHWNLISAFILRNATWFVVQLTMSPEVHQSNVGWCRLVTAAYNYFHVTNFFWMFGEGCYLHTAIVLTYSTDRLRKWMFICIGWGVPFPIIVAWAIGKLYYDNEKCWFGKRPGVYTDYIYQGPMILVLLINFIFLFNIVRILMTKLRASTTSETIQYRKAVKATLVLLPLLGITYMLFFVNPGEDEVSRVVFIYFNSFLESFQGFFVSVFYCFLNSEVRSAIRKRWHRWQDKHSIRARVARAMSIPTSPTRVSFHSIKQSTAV
In short: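 Uses frozen stocks of CHO-K1 clone 2 cells overexpressing human CRF1R, plated at 4000 cells/well final, with cAMP measured by the same protocol as the TeloHAEC line. Full-activation control: 100 nM Sauvagine.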

human CRF2a receptor = target: T2, human CRF2a receptor (Homo sapiens, UniProt Q13324); experiment: Activity at human CRF2a receptor, cAMP functional assay in TeloHEAC cells; format: cell-based; conditions: TeloHEAC cells stably expressing human CRF2a receptor, relative to urocortin 2 (100 nM = 100%)
T2 construct: expressed in transfected cells; host or cells: TeloHEAC cells
T2 sequence (Q13324 1-411): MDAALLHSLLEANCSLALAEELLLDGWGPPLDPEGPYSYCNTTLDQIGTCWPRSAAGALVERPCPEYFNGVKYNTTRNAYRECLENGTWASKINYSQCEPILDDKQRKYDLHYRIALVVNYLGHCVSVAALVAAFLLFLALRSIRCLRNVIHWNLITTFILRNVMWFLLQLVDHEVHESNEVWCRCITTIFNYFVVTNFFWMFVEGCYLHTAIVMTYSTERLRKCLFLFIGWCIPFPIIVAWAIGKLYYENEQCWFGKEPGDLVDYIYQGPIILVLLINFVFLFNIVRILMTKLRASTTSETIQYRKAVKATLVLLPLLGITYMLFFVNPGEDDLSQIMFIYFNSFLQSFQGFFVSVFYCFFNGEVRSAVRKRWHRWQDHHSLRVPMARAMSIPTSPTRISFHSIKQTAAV
In short: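 cAMP accumulation was measured by HTRF 665/620 nm ratio after 30 min at 37° C compound exposure (16 twofold dilutions) of CRF2a-expressing TeloHEAC cells, 10000/well, in HEPES-buffered HBSS plus IBMX. Activity was normalised to urocortin 2 at 100 nM (100%), and EC50 was the concentration giving half-maximal activation.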

| Compound | Emax (% I) (CFR1R receptor) | EC50 (human CRF2a receptor) [nM] | EC50 (CFR1R receptor) [nM] |
| --- | --- | --- | --- |
| CCCCC(=O)N[C@H](C(=O)N[C@@H](CC(C)C)C(=O)N[C@@H](CO)C(=O)N[C@@H](CC(C)C)C(=O)N[C@@H](CC(=O)O)C(=O)N[C@@H](C(=O)N1CCC[C@H]1C(=O)N[C@H](C(=O)N[C@@H](CCCCN)C(=O)N[C@@H](CC(C)C)C(=O)N[C@@H](CCCCNC(=O)CC[C@H](NC(=O)CCCCCCCCCCCCCCC(=O)O)C(=O)O)C(=O)N[C@@H](CCC(N)=O)C(=O)N[C@H](C(=O)N[C@@H](CC(C)C)C(=O)N[C@@H](CC(C)C)C(=O)N[C@@H](CCCCN)C(=O)N[C@@H](CCC(N)=O)C(=O)N[C@@H](CCC(=O)O)C(=O)N[C@@H](CCCNC(=N)N)C(=O)N[C@@H](CCC(N)=O)C(=O)N[C@@H](CCCCN)C(=O)N[C@@H](CCCCN)C(=O)N[C@@H](CCC(N)=O)C(=O)N[C@@H](CCCNC(=N)N)C(=O)N[C@@H](CCC(=O)O)C(=O)N[C@@H](CCC(N)=O)C(=O)N[C@@H](C)C(=O)N[C@@H](CCC(=O)O)C(=O)N[C@@H](CCCCN)C(=O)N[C@@H](CC(N)=O)C(=O)N[C@@H](CCCCN)C(=O)N[C@@H](CCC(N)=O)C(=O)N[C@H](C(=O)N[C@@H](CC(C)C)C(=O)N[C@@H](CCC(=O)O)C(=O)N[C@@H](CCC(N)=O)C(=O)N[C@H](C(N)=O)C(C)C)[C@@H](C)CC)[C@@H](C)CC)[C@@H](C)CC)C(C)C)C(C)C [compound 8] (Pentanoyl-VLSLD[dV]PIKLK([γGlu-C16 diacid])QILLKQERQKKQREQAEKNKQILEQV-NH2) | 50 | 0.14 | – |
| CC[C@H](C)[C@H](NC)C(=O)N[C@H](C(=O)N[C@@H](CC(C)C)C(=O)N[C@@H](CO)C(=O)N[C@@H](CC(C)C)C(=O)N[C@@H](CC(=O)O)C(=O)N[C@@H](C(=O)N1CCC[C@H]1C(=O)N[C@H](C(=O)N[C@@H](CCCCN)C(=O)N[C@@H](CC(C)C)C(=O)N[C@@H](CCCCNC(=O)CC[C@H](NC(=O)CCCCCCCCCCCCCCCCC(=O)O)C(=O)O)C(=O)N[C@@H](CCCCN)C(=O)N[C@H](C(=O)N[C@@H](CC(C)C)C(=O)N[C@@H](CC(C)C)C(=O)N[C@@H](CCC(=O)O)C(=O)N[C@@H](CCC(N)=O)C(=O)N[C@@H](CCC(=O)O)C(=O)N[C@@H](CCCCN)C(=O)N[C@@H](CCC(N)=O)C(=O)N[C@@H](CCCCN)C(=O)N[C@@H](CCCCN)C(=O)N[C@@H](CCC(N)=O)C(=O)N[C@@H](CCCNC(=N)N)C(=O)N[C@@H](CCC(=O)O)C(=O)N[C@@H](CCC(N)=O)C(=O)N[C@@H](C)C(=O)N[C@@H](CCC(=O)O)C(=O)N[C@H](C(=O)N[C@@H](CC(N)=O)C(=O)N[C@@H](C)C(=O)N[C@@H](CCC(N)=O)C(=O)N[C@H](C(=O)N[C@@H](CC(C)C)C(=O)N[C@@H](C)C(=O)N[C@@H](CCC(N)=O)C(=O)N[C@H](C(N)=O)C(C)C)[C@@H](C)CC)[C@@H](C)O)[C@@H](C)CC)[C@@H](C)CC)C(C)C)C(C)C [compound 138] (H-[NMeI]VLSLD[dV]PIKLK([γGlu-C18 diacid])KILLEQEKQKKQREQAETNAQILAQV-NH2) | 10 | 0.05 | > 250 |
| CCCCC(=O)N[C@H](C(=O)N[C@@H](CC(C)C)C(=O)N[C@@H](CO)C(=O)N[C@@H](CC(C)C)C(=O)N[C@@H](CC(=O)O)C(=O)N[C@@H](C(=O)N1CCC[C@H]1C(=O)N[C@H](C(=O)N[C@@H](CCCCN)C(=O)N[C@@H](CC(C)C)C(=O)N[C@@H](CCCCNC(=O)COCCOCCNC(=O)COCCOCCNC(=O)CC[C@H](NC(=O)CCCCCCCCCCCCCCCCC(=O)O)C(=O)O)C(=O)N[C@@H](CCCCN)C(=O)N[C@H](C(=O)N[C@@H](CC(C)C)C(=O)N[C@@H](CC(C)C)C(=O)N[C@@H](CCC(=O)O)C(=O)N[C@@H](CCC(N)=O)C(=O)N[C@@H](CCC(=O)O)C(=O)N[C@@H](CCCCN)C(=O)N[C@@H](CCC(N)=O)C(=O)N[C@@H](CCCCN)C(=O)N[C@@H](CCCCN)C(=O)N[C@@H](CCC(N)=O)C(=O)N[C@@H](CCCNC(=N)N)C(=O)N[C@@H](CCC(=O)O)C(=O)N[C@@H](CCC(N)=O)C(=O)N[C@@H](C)C(=O)N[C@@H](CCC(=O)O)C(=O)N[C@H](C(=O)N[C@@H](CC(N)=O)C(=O)NC(C)(C)C(=O)N[C@@H](CCC(N)=O)C(=O)N[C@H](C(=O)N[C@@H](CC(C)C)C(=O)N[C@@H](C)C(=O)N[C@@H](CCC(N)=O)C(=O)N[C@H](C(N)=O)C(C)C)[C@@H](C)CC)[C@@H](C)O)[C@@H](C)CC)[C@@H](C)CC)C(C)C)C(C)C [compound 201] (Pentanoyl-VLSLD[dV]PIKLK([AEEA-AEEA-γGlu-C18 diacid])KILLEQEKQKKQREQAETN[Aib]QILAQV-NH2) | 5 | 1.37 | > 250 |
| CC[C@H](C)[C@H](NC(C)=O)C(=O)N[C@H](C(=O)N[C@@H](CC(C)C)C(=O)N[C@@H](CO)C(=O)N[C@@H](CC(C)C)C(=O)N[C@@H](CC(=O)O)C(=O)N[C@@H](C(=O)N1CCC[C@H]1C(=O)N[C@H](C(=O)N[C@@H](CCCCN)C(=O)N[C@@H](CC(C)C)C(=O)N[C@@H](CCCCNC(=O)COCCOCCNC(=O)COCCOCCNC(=O)CC[C@H](NC(=O)CCCCCCCCCCCCCCCCC(=O)O)C(=O)O)C(=O)N[C@@H](CCCCN)C(=O)N[C@H](C(=O)N[C@@H](CC(C)C)C(=O)N[C@@H](CC(C)C)C(=O)N[C@@H](CCC(=O)O)C(=O)N[C@@H](CCC(N)=O)C(=O)N[C@@H](CCC(=O)O)C(=O)N[C@@H](CCCCN)C(=O)N[C@@H](CCC(N)=O)C(=O)N[C@@H](CCCCN)C(=O)N[C@@H](CCCCN)C(=O)N[C@@H](CCC(N)=O)C(=O)N[C@@H](CCCNC(=N)N)C(=O)N[C@@H](CCC(=O)O)C(=O)N[C@@H](CCC(N)=O)C(=O)N[C@@H](C)C(=O)N[C@@H](CCC(=O)O)C(=O)N[C@H](C(=O)N[C@@H](CC(N)=O)C(=O)NC1(C(=O)N[C@@H](CCC(N)=O)C(=O)N[C@H](C(=O)N[C@@H](CC(C)C)C(=O)N[C@@H](C)C(=O)N[C@@H](CCC(N)=O)C(=O)N[C@H](C(N)=O)C(C)C)[C@@H](C)CC)CCNCC1)[C@@H](C)O)[C@@H](C)CC)[C@@H](C)CC)C(C)C)C(C)C [compound 109] (Ac-IVLSLD[dV]PIKLK([AEEA-AEEA-γGlu-C18 diacid])KILLEQEKQKKQREQAETN[Api]QILAQV-NH2) | 4 | 1 | > 250 |
| CC[C@H](C)[C@H](NC(C)=O)C(=O)N[C@H](C(=O)N[C@@H](CC(C)C)C(=O)N[C@@H](CO)C(=O)N[C@@H](CC(C)C)C(=O)N[C@@H](CC(=O)O)C(=O)N[C@@H](C(=O)N1CCC[C@H]1C(=O)N[C@H](C(=O)N[C@@H](CCCCN)C(=O)N[C@@H](CC(C)C)C(=O)N[C@@H](CCCCNC(=O)CC[C@H](NC(=O)CCCCCCCCCCCCCCC(=O)O)C(=O)O)C(=O)N[C@@H](C)C(=O)N[C@H](C(=O)N[C@@H](CC(C)C)C(=O)N[C@@H](CC(C)C)C(=O)N[C@@H](CCC(=O)O)C(=O)N[C@@H](CCC(N)=O)C(=O)N[C@@H](CCC(=O)O)C(=O)N[C@@H](CCCCN)C(=O)N[C@@H](CCC(N)=O)C(=O)N[C@@H](CCCCN)C(=O)N[C@@H](CCCCN)C(=O)N[C@@H](CCC(N)=O)C(=O)N[C@@H](CCCNC(=N)N)C(=O)N[C@@H](CCC(=O)O)C(=O)N[C@@H](CCC(N)=O)C(=O)N[C@@H](C)C(=O)N[C@@H](CCC(=O)O)C(=O)N[C@H](C(=O)N[C@@H](CC(N)=O)C(=O)NC(C)(C)C(=O)N[C@@H](CCC(N)=O)C(=O)N[C@H](C(=O)N[C@@H](CC(C)C)C(=O)N[C@@H](C)C(=O)N[C@@H](CCC(N)=O)C(=O)N[C@H](C(N)=O)C(C)C)[C@@H](C)CC)[C@@H](C)O)[C@@H](C)CC)[C@@H](C)CC)C(C)C)C(C)C [compound 164] (Ac-IVLSLD[dV]PIKLK([γGlu-C16 diacid])AILLEQEKQKKQREQAETN[Aib]QILAQV-NH2) | 14 | 2.43 | > 250 |
